# Laboratory results taken from US20230339851A1, “CXCR6 SULFONAMIDE COMPOUNDS” (CHEMOCENTRYX, INC., priority 2022, published 2023).
# pIC50: −log10 of the molar value.
# Molecular target: T1, human CXCR6 (Homo sapiens, UniProt O00574)
# T1 construct: expressed in transfected cells
# Test: Radioligand Binding Assay (125I-CXCL16 displacement)
# Conditions: L1.2 cells stably transfected with human CXCR6 cDNA, 0.1 nM 125I-CXCL16, 4° C., three-hour incubation; read-out: Potency (IC50)
# How it was run: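 Displacement of 0.1 nM 125I-CXCL16 from human CXCR6 stably expressed in L1.2 cells was measured after a 3 h, 4 °C incubation in HBSS with 0.1% BSA. Filter-bound cpm were counted, and IC50 values came from a 3-parameter nonlinear fit.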
# T1 sequence (O00574 whole entry): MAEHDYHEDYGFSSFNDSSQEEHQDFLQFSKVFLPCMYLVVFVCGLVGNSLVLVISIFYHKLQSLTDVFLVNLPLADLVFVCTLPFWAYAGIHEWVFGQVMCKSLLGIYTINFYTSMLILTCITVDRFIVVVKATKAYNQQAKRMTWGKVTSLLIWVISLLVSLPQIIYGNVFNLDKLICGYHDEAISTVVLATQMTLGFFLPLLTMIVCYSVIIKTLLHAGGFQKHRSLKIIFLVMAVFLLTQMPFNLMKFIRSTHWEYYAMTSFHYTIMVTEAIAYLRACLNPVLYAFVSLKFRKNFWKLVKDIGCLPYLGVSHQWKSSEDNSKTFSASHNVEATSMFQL
row,pIC50,SMILES
1,4.70 to 5.70,CCCCOc1cc(NC(=O)c2ccnn2C)ccc1S(=O)(=O)Nc1cccc(C(F)(F)F)c1 [Example 1.156]
2,6.12 to 6.70,CCOc1cc(NC(=O)[C@H]2CCOC[C@@H]2O)ccc1S(=O)(=O)Nc1cccc(OC(F)(F)F)c1 [Example 1.410]
3,4.70 to 5.70,Cc1cc(NC(=O)C2(C)CCCCC2)ccc1S(=O)(=O)Nc1cccc(C(F)(F)F)c1 [Example 1.265]
4,≥ 6.70,CCOc1cc(NC(=O)c2cn[nH]c(=O)c2)ccc1S(=O)(=O)Nc1cccc(OC(F)(F)F)c1 [Example 1.529]
5,6.12 to 6.70,CC(C)c1cc(NC(=O)c2ccnn2C)ccc1S(=O)(=O)Nc1cccc(C(F)(F)F)c1 [Example 1.384]
6,4.70 to 5.70,COc1cc(NC(=O)CC2COCCN2)ccc1S(=O)(=O)Nc1cccc(C(F)(F)F)c1 (centres unmarked) [Example 1.240]
7,4.70 to 5.70,COc1cc(NC(C)=O)cc(F)c1S(=O)(=O)Nc1cccc(OC(F)(F)F)c1 [Example 1.537]
8,6.12 to 6.70,CCOc1cc(NC(=O)[C@@H](CO)c2ccccc2)ccc1S(=O)(=O)Nc1ccc(C)c(Cl)c1 [Example 1.441]
9,≥ 6.70,CCc1cc(NC(=O)C(NC(C)=O)C(C)C)ccc1S(=O)(=O)Nc1cccc(OC(F)(F)F)c1 (centres unmarked) [Example 1.487]
10,6.12 to 6.70,CCOc1cc(NC(=O)C(C)C(O)C2CCOCC2)ccc1S(=O)(=O)Nc1cccc(OC(F)(F)F)c1 (centres unmarked) [Example 1.072]
11,≥ 6.70,CCOc1cc(NC(=O)C(C)c2ccccc2)ccc1S(=O)(=O)Nc1cccc(OC(F)(F)F)c1 (centres unmarked) [Example 1.064]
12,6.12 to 6.70,CCOc1cc(NC(=O)C2CCOC2)ccc1S(=O)(=O)Nc1cccc(OC(F)(F)F)c1 (centres unmarked) [Example 1.058]
13,≥ 6.70,CCOc1cc(NC(=O)[C@@H](NC(C)=O)C(C)C)ccc1S(=O)(=O)Nc1cccc(OC(F)(F)F)c1 [Example 1.415]
14,4.70 to 5.70,COc1cc(NC(=O)C2CCC(O)CC2)ccc1S(=O)(=O)Nc1cccc(C(F)(F)F)c1 (centres unmarked) [Example 1.140]
15,≥ 6.70,CCOc1cc(NC(=O)[C@@H](O)[C@@H](C)CC)ccc1S(=O)(=O)Nc1ccc(F)c(OC(F)(F)F)c1 [Example 1.259]
16,≥ 6.70,CCOc1cc(NC(=O)[C@@H](N)c2ccccc2)ccc1S(=O)(=O)Nc1cccc(OC(F)(F)F)c1 [Example 1.086]
17,≥ 6.70,CCOc1cc(NC(=O)C2CC3CCC2O3)ccc1S(=O)(=O)Nc1cccc(OC(F)(F)F)c1 (centres unmarked) [Example 1.061]
18,≥ 6.70,CCOc1cc(NC(=O)[C@@H](N)C2CCCC2)ccc1S(=O)(=O)Nc1cccc(OC(F)(F)F)c1 [Example 1.463]
19,≥ 6.70,CCOc1cc(NC(=O)[C@@H](O)C(C)C)ccc1S(=O)(=O)Nc1ccc(F)c(CC)c1 [Example 1.431]
20,6.12 to 6.70,CCOc1cc(NC(=O)[C@@H](O)c2ccccc2)ccc1S(=O)(=O)Nc1ccc(C2CC2)c(OC(F)(F)F)c1 [Example 1.556]
21,6.12 to 6.70,COc1cc(NC(=O)c2ccnn2C)ccc1S(=O)(=O)Nc1ccc(C(F)(F)F)cc1 [Example 1.224]
22,4.70 to 5.70,COc1cc(NC(=O)CC2CCNC2)ccc1S(=O)(=O)Nc1cccc(C(F)(F)F)c1 (centres unmarked) [Example 1.214]
23,≥ 6.70,CCOc1cc(NC(=O)C(CCO)c2ccccc2)ccc1S(=O)(=O)Nc1cccc(OC(F)(F)F)c1 (centres unmarked) [Example 1.047]
24,4.70 to 5.70,Cc1cc(NC(=O)c2cscn2)ccc1S(=O)(=O)Nc1cccc(C(F)(F)F)c1 [Example 1.359]

row,pIC50,SMILES
1,5.70 to 6.12,COc1cc(NC(=O)c2ccn[nH]2)ccc1S(=O)(=O)Nc1cccc(C(F)(F)F)c1 [Example 1.055]
2,6.12 to 6.70,COc1cc(NC(=O)C2CC3CCC32O)ccc1S(=O)(=O)Nc1cccc(C(F)(F)F)c1 (centres unmarked) [Example 1.035]
3,4.70 to 5.70,CCOc1cc(NC(=O)[C@@H](CO)c2ccccc2)ccc1S(=O)(=O)Nc1ccc(CO)c(C(F)(F)F)c1 [Example 1.388]
4,5.70 to 6.12,CCOc1cc(NC(=O)[C@@H](CO)c2ccccc2)ccc1S(=O)(=O)Nc1cccc(Cl)c1Cl [Example 1.272]
5,6.12 to 6.70,Cc1cc(NC(=O)C2CCOCC2)ccc1S(=O)(=O)Nc1cccc(C(F)(F)F)c1 [Example 1.500]
6,5.70 to 6.12,COc1cc(NC(=O)c2ccnn2C)ccc1S(=O)(=O)Nc1ccc(OC(F)(F)F)c(Cl)c1 [Example 1.559]
7,≥ 6.70,C=C(C)CC(CO)C(=O)Nc1ccc(S(=O)(=O)Nc2cccc(OC(F)(F)F)c2)c(OCC)c1 (centres unmarked) [Example 1.352]
8,4.70 to 5.70,CCCCOc1cc(NC(=O)c2ccns2)ccc1S(=O)(=O)Nc1cccc(C(F)(F)F)c1 [Example 1.124]
9,5.70 to 6.12,COc1cc(NC(=O)[C@@H]2CCCC[C@H]2O)ccc1S(=O)(=O)Nc1cccc(OC(F)(F)F)c1 [Example 1.049]
10,≥ 6.70,CCOc1cc(NC(=O)[C@@H](CO)c2ccccc2)ccc1S(=O)(=O)Nc1cccc(C2CC2)c1 [Example 1.080]
11,6.12 to 6.70,COc1cc(NC(=O)c2cc(C)nn2C)ccc1S(=O)(=O)Nc1cccc(C(F)(F)F)c1 [Example 1.254]
12,6.12 to 6.70,Cc1cc(NC(=O)c2ccoc2C)ccc1S(=O)(=O)Nc1cccc(C(F)(F)F)c1 [Example 1.019]
13,≥ 6.70,CCOc1cc(NC(=O)[C@@H]2CC=CC[C@H]2O)ccc1S(=O)(=O)Nc1cccc(OC(F)(F)F)c1 [Example 1.505]
14,≥ 6.70,CCOc1cc(NC(=O)[C@@H](CO)c2ccccc2)ccc1S(=O)(=O)Nc1ccc(C)c(CC)c1 [Example 1.498]
15,6.12 to 6.70,Cc1cc(NC(=O)C(CO)C(C)C)ccc1S(=O)(=O)Nc1cccc(OC(F)(F)F)c1 (centres unmarked) [Example 1.400]
16,4.70 to 5.70,CCOc1cc(NC(=O)C2CCC(O)CC2)ccc1S(=O)(=O)Nc1cccc(OC(F)(F)F)c1 (centres unmarked) [Example 1.285]
17,≥ 6.70,CCOc1cc(NC(=O)[C@@H](O)c2ccccc2)ccc1S(=O)(=O)Nc1ccc(C)c(OC(F)(F)F)c1 [Example 1.279]
18,≥ 6.70,COc1cc(NC(=O)c2ccns2)ccc1S(=O)(=O)Nc1cccc(C(F)(F)F)c1 [Example 1.115]
19,≥ 6.70,CCOc1cc(NC(=O)[C@@H](O)C(C)C)ccc1S(=O)(=O)Nc1cccc(OC(F)(F)F)c1 [Example 1.105]
20,≥ 6.70,CCc1cc(NC(=O)[C@@H](O)C(C)C)ccc1S(=O)(=O)Nc1cccc(OC(F)(F)F)c1 [Example 1.059]
21,≥ 6.70,CCOc1cc(NC(=O)c2cc[nH]c(=O)c2)ccc1S(=O)(=O)Nc1cccc(OC(F)(F)F)c1 [Example 1.103]
22,4.70 to 5.70,CC(=O)Nc1ccc(S(=O)(=O)Nc2cccc(OC(F)(F)F)c2)c(C(C)C)c1 [Example 1.132]
23,≥ 6.70,CCOc1cc(NC(=O)[C@@H](O)C(C)C)ccc1S(=O)(=O)Nc1cccc(C(C)C)c1 [Example 1.263]
24,6.12 to 6.70,CCOc1cc(NC(=O)[C@@H](CO)C(C)C)ccc1S(=O)(=O)Nc1ccc(Cl)cc1 [Example 1.044]

row,pIC50,SMILES
1,6.12 to 6.70,CCOc1cc(NC(=O)[C@@H](O)C(C)C)ccc1S(=O)(=O)Nc1cccc(C(C)(C)C)c1 [Example 1.277]
2,≥ 6.70,CCOc1cc(NC(=O)[C@@H](CO)c2ccccc2)ccc1S(=O)(=O)Nc1cccc(OC(F)(F)F)c1 [Example 1.536]
3,4.70 to 5.70,COc1cc(NC(=O)c2ccnn2C)ccc1S(=O)(=O)Nc1cc(C(F)(F)F)cc(C(F)(F)F)c1 [Example 1.112]
4,5.70 to 6.12,CCOc1cc(NC(=O)[C@@H](CO)C(C)C)ccc1S(=O)(=O)Nc1cccc(Cl)c1OC [Example 1.362]
5,≥ 6.70,CCOc1cc(NC(=O)C(O)Cc2ccccc2)ccc1S(=O)(=O)Nc1cccc(OC(F)(F)F)c1 (centres unmarked) [Example 1.182]
6,≥ 6.70,Cc1cc(NC(=O)[C@@H](N)c2ccccc2)ccc1S(=O)(=O)Nc1cccc(OC(F)(F)F)c1 [Example 1.450]
7,5.70 to 6.12,COc1cc(NC(=O)c2ccnn2C)ccc1S(=O)(=O)Nc1ccc(Cl)c(Cl)c1 [Example 1.247]
8,4.70 to 5.70,CC(=O)Nc1ccc(S(=O)(=O)Nc2cccc(C(F)(F)F)c2)c(OC(F)(F)F)c1 [Example 1.264]
9,≥ 6.70,CCOc1cc(NC(=O)[C@@H](CO)c2ccccc2)ccc1S(=O)(=O)Nc1cccc(C(F)(F)F)c1 [Example 1.437]
10,≥ 6.70,CCOc1cc(NC(=O)C(CO)CC2CC2)ccc1S(=O)(=O)Nc1cccc(OC(F)(F)F)c1 (centres unmarked) [Example 1.014]
11,≥ 6.70,CCOc1cc(NC(=O)[C@@H](O)C(C)C)ccc1S(=O)(=O)Nc1cccc(C(C)(F)F)c1 [Example 1.261]
12,6.12 to 6.70,CCOc1cc(NC(=O)[C@@H](NC(=O)OC(C)(C)C)c2ccccc2)ccc1S(=O)(=O)Nc1cccc(OC(F)(F)F)c1 [Example 1.429]
13,5.70 to 6.12,CCOc1cc(NC(=O)C2CCN(C)C(=O)C2)ccc1S(=O)(=O)Nc1cccc(OC(F)(F)F)c1 (centres unmarked) [Example 1.316]
14,6.12 to 6.70,COc1cc(NC(=O)c2ccnn2C)ccc1S(=O)(=O)Nc1ccc(OC(F)(F)F)cc1 [Example 1.228]
15,≥ 6.70,CCOc1cc(NC(=O)[C@@H](O)C(C)C)ccc1S(=O)(=O)Nc1cccc(C(F)(F)F)c1 [Example 1.088]
16,≥ 6.70,CCOc1cc(NC(=O)[C@@H](O)Cc2ccccc2)ccc1S(=O)(=O)Nc1cccc(OC(F)(F)F)c1 [Example 1.207]
17,5.70 to 6.12,CCOc1cc(NC(=O)CC(O)c2ccnn2C)ccc1S(=O)(=O)Nc1cccc(OC(F)(F)F)c1 (centres unmarked) [Example 1.060]
18,5.70 to 6.12,Cn1nccc1C(=O)Nc1ccc(S(=O)(=O)Nc2cccc(OC(F)(F)F)c2)c(C#N)c1 [Example 1.289]
19,≥ 6.70,CCOc1cc(NC(=O)c2cccnc2N)ccc1S(=O)(=O)Nc1cccc(OC(F)(F)F)c1 [Example 1.162]
20,6.12 to 6.70,CCOc1cc(NC(=O)[C@@H](CO)C(C)C)ccc1S(=O)(=O)Nc1ccc(C)c(F)c1 [Example 1.213]
21,≥ 6.70,CCOc1cc(NC(=O)C(NC)c2ccccc2)ccc1S(=O)(=O)Nc1cccc(OC(F)(F)F)c1 (centres unmarked) [Example 1.408]
22,6.12 to 6.70,CCOc1cc(NC(=O)c2cccc3cn[nH]c23)ccc1S(=O)(=O)Nc1cccc(OC(F)(F)F)c1 [Example 1.357]
23,≥ 6.70,CCOc1cc(NC(=O)C(CO)c2ccc(F)cc2)ccc1S(=O)(=O)Nc1cccc(OC(F)(F)F)c1 (centres unmarked) [Example 1.204]
